From ChEMBL document CHEMBL1201862, “PubChem BioAssay data set” (2004)
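Briefly, cells in 96-well plates were exposed to five compound concentrations for 48 h, and endpoints were estimated by linear interpolation. Here, GI50 denotes the concentration required for 50% inhibition of growth.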 Calls of active or inactive are those of the source. Cut-off read from the data, not from the text of the source: active = GI50 up to about 1.1 µM and inactive = higher.

Key:
Assay in all cases: DTP human tumour cell line panel, 48 h
NCI-H226 = tested on: NCI-H226
SW-620 = tested on: SW-620
ACHN = tested on: ACHN
HOP-62 = tested on: HOP-62
NCI-H460 = tested on: NCI-H460
SN12C = tested on: SN12C
OVCAR-5 = tested on: OVCAR-5
U-251 = tested on: U-251
XF498 = tested on: XF498
EKVX = tested on: EKVX
OVCAR-3 = tested on: OVCAR-3
DMS-273 = tested on: DMS-273
786-0 = tested on: 786-0
KM12 = tested on: KM12
M14 = tested on: M14
A498 = tested on: A498
SK-MEL-28 = tested on: SK-MEL-28
MOLT-4 = tested on: MOLT-4
CAKI-1 = tested on: CAKI-1
HT-29 = tested on: HT-29
RPMI-8226 = tested on: RPMI-8226
SK-MEL-5 = tested on: SK-MEL-5
SR = tested on: SR
SNB-19 = tested on: SNB-19
IGROV-1 = tested on: IGROV-1
HCT-15 = tested on: HCT-15
SNB-78 = tested on: SNB-78
SK-OV-3 = tested on: SK-OV-3
SF-268 = tested on: SF-268
HCC 2998 = tested on: HCC 2998
UO-31 = tested on: UO-31
OVCAR-4 = tested on: OVCAR-4
LOX IMVI = tested on: LOX IMVI
LXFL 529 = tested on: LXFL 529
UACC-62 = tested on: UACC-62
RXF 631 = tested on: RXF 631
UACC-257 = tested on: UACC-257
DMS-114 = tested on: DMS-114
M19-MEL = tested on: M19-MEL
OVCAR-8 = tested on: OVCAR-8
Malme-3M = tested on: Malme-3M
SF-539 = tested on: SF-539
HCT-116 = tested on: HCT-116
NCI-H522 = tested on: NCI-H522
SK-MEL-2 = tested on: SK-MEL-2
A549 = tested on: A549
K562 = tested on: K562
SF-295 = tested on: SF-295
KM-20L2 = tested on: KM-20L2
SNB-75 = tested on: SNB-75
COLO 205 = tested on: COLO 205
DLD-1 = tested on: DLD-1
NCI-H23 = tested on: NCI-H23
HOP-18 = tested on: HOP-18
RXF 393 = tested on: RXF 393
HL-60 = tested on: HL-60
TK-10 = tested on: TK-10
CCRF-CEM = tested on: CCRF-CEM
HOP-92 = tested on: HOP-92

COC(=O)C1=C(C)N(NC(=O)c2cccc(Cl)c2)C(C)(O)C12CCOC2=O (stereo not given)
GI50 (NCI-H226): > 100 µM (inactive)
GI50 (SW-620): > 100 µM (inactive)
GI50 (ACHN): > 100 µM (inactive)
GI50 (HOP-62): > 100 µM (inactive)
GI50 (NCI-H460): > 100 µM (inactive)
GI50 (SN12C): > 100 µM (inactive)
GI50 (OVCAR-5): > 100 µM (inactive)
GI50 (U-251): > 100 µM (inactive)
GI50 (XF498): > 100 µM (inactive)
GI50 (EKVX): 58.7 µM (inactive)
GI50 (OVCAR-3): > 100 µM (inactive)
GI50 (DMS-273): > 100 µM (inactive)
GI50 (786-0): > 100 µM (inactive)
GI50 (KM12): > 100 µM (inactive)
GI50 (M14): > 100 µM (inactive)
GI50 (A498): > 100 µM (inactive)
GI50 (SK-MEL-28): > 100 µM (inactive)
GI50 (MOLT-4): > 100 µM (inactive)
GI50 (CAKI-1): > 100 µM (inactive)
GI50 (HT-29): > 100 µM (inactive)
GI50 (RPMI-8226): > 100 µM (inactive)
GI50 (SK-MEL-5): > 100 µM (inactive)
GI50 (SR): > 100 µM (inactive)
GI50 (SNB-19): > 100 µM (inactive)
GI50 (IGROV-1): > 100 µM (inactive)
GI50 (HCT-15): > 100 µM
GI50 (SNB-78): 42.1 µM (inactive)
GI50 (SK-OV-3): > 100 µM (inactive)
GI50 (SF-268): > 100 µM (inactive)
GI50 (HCC 2998): > 100 µM (inactive)
GI50 (UO-31): > 100 µM (inactive)
GI50 (OVCAR-4): > 100 µM (inactive)
GI50 (LOX IMVI): > 100 µM (inactive)
GI50 (LXFL 529): > 100 µM (inactive)
GI50 (UACC-62): > 100 µM (inactive)
GI50 (RXF 631): > 100 µM (inactive)
GI50 (UACC-257): > 100 µM (inactive)
GI50 (DMS-114): > 100 µM (inactive)
GI50 (M19-MEL): > 100 µM (inactive)
GI50 (OVCAR-8): > 100 µM (inactive)
GI50 (Malme-3M): > 100 µM (inactive)
GI50 (SF-539): > 100 µM (inactive)
GI50 (HCT-116): > 100 µM (inactive)
GI50 (NCI-H522): > 100 µM (inactive)
GI50 (SK-MEL-2): > 100 µM (inactive)
GI50 (A549): > 100 µM (inactive)
GI50 (K562): > 100 µM (inactive)
GI50 (SF-295): > 100 µM (inactive)
GI50 (KM-20L2): > 100 µM (inactive)
GI50 (SNB-75): > 100 µM (inactive)

Cn1nc(-c2ccccc2)c(C(=O)/C=C/c2ccccc2)c(N2CCCCC2)c1=O
GI50 (COLO 205): 9.98 µM (inactive)
GI50 (SW-620): 34 µM (inactive)
GI50 (ACHN): 46.1 µM (inactive)
GI50 (HOP-62): 3.91 µM (inactive)
GI50 (NCI-H460): 7.67 µM (inactive)
GI50 (DLD-1): 9.35 µM (inactive)
GI50 (SN12C): > 100 µM (inactive)
GI50 (U-251): > 100 µM (inactive)
GI50 (NCI-H23): 14 µM (inactive)
GI50 (EKVX): > 100 µM (inactive)
GI50 (DMS-273): 37.7 µM (inactive)
GI50 (786-0): 12.5 µM (inactive)
GI50 (M14): 47.6 µM (inactive)
GI50 (SK-MEL-28): 14.5 µM (inactive)
GI50 (MOLT-4): 2.36 µM (inactive)
GI50 (CAKI-1): 22.2 µM (inactive)
GI50 (HT-29): 11.7 µM (inactive)
GI50 (RPMI-8226): 4.22 µM (inactive)
GI50 (SK-MEL-5): 17.5 µM (inactive)
GI50 (SNB-19): > 100 µM (inactive)
GI50 (IGROV-1): > 100 µM (inactive)
GI50 (HCT-15): 17.7 µM
GI50 (SK-OV-3): > 100 µM (inactive)
GI50 (SF-268): 23.7 µM (inactive)
GI50 (UO-31): 17.5 µM (inactive)
GI50 (LOX IMVI): 11.7 µM (inactive)
GI50 (LXFL 529): > 100 µM (inactive)
GI50 (UACC-62): 15.9 µM (inactive)
GI50 (RXF 631): > 100 µM (inactive)
GI50 (DMS-114): > 100 µM (inactive)
GI50 (OVCAR-8): 42 µM (inactive)
GI50 (HOP-18): 40.8 µM (inactive)
GI50 (RXF 393): 12.8 µM (inactive)
GI50 (HL-60): 2.72 µM (inactive)
GI50 (SF-539): 41.5 µM (inactive)
GI50 (HCT-116): 4.91 µM (inactive)
GI50 (NCI-H522): 7.05 µM (inactive)
GI50 (A549): 9.86 µM (inactive)
GI50 (K562): 4.7 µM (inactive)
GI50 (TK-10): > 100 µM (inactive)
GI50 (KM-20L2): 10.4 µM (inactive)
GI50 (CCRF-CEM): 3.72 µM (inactive)
GI50 (HOP-92): 7.31 µM (inactive)

CCOC(=O)CC1(C(=O)OCC)c2[nH]c3ccccc3c2CCN1Cc1ccccc1 (stereo not given)
GI50 (NCI-H226): 19.1 µM (inactive)
GI50 (COLO 205): 16.7 µM (inactive)
GI50 (SW-620): 31.7 µM (inactive)
GI50 (ACHN): 21.2 µM (inactive)
GI50 (HOP-62): 18.1 µM (inactive)
GI50 (NCI-H460): 19 µM (inactive)
GI50 (DLD-1): 24.4 µM (inactive)
GI50 (SN12C): 14.2 µM (inactive)
GI50 (OVCAR-5): 20.5 µM (inactive)
GI50 (U-251): 15 µM (inactive)
GI50 (NCI-H23): 15.9 µM (inactive)
GI50 (XF498): 24.2 µM (inactive)
GI50 (EKVX): 21.8 µM (inactive)
GI50 (OVCAR-3): 14.1 µM (inactive)
GI50 (DMS-273): 17.3 µM (inactive)
GI50 (786-0): 16.9 µM (inactive)
GI50 (KM12): 17.7 µM (inactive)
GI50 (M14): 18.6 µM (inactive)
GI50 (A498): 19.3 µM (inactive)
GI50 (SK-MEL-28): 20.4 µM (inactive)
GI50 (MOLT-4): 13.5 µM (inactive)
GI50 (CAKI-1): 31 µM (inactive)
GI50 (HT-29): 14.4 µM (inactive)
GI50 (SK-MEL-5): 20 µM (inactive)
GI50 (SR): 22 µM (inactive)
GI50 (SNB-19): 38.4 µM (inactive)
GI50 (IGROV-1): 18.3 µM (inactive)
GI50 (HCT-15): 29.2 µM
GI50 (SNB-78): 40.7 µM (inactive)
GI50 (SK-OV-3): 28.5 µM (inactive)
GI50 (SF-268): 20.2 µM (inactive)
GI50 (HCC 2998): 13.7 µM (inactive)
GI50 (UO-31): 18.4 µM (inactive)
GI50 (OVCAR-4): 19.2 µM (inactive)
GI50 (LOX IMVI): 18.5 µM (inactive)
GI50 (LXFL 529): 25.4 µM (inactive)
GI50 (UACC-62): 17.1 µM (inactive)
GI50 (UACC-257): 17.7 µM (inactive)
GI50 (DMS-114): 18.3 µM (inactive)
GI50 (M19-MEL): 14.3 µM (inactive)
GI50 (OVCAR-8): 23.7 µM (inactive)
GI50 (Malme-3M): 17.8 µM (inactive)
GI50 (HOP-18): 23 µM (inactive)
GI50 (RXF 393): 17.7 µM (inactive)
GI50 (HL-60): 21.6 µM (inactive)
GI50 (SF-539): 19.9 µM (inactive)
GI50 (HCT-116): 17 µM (inactive)
GI50 (NCI-H522): 13.2 µM (inactive)
GI50 (SK-MEL-2): 17.9 µM (inactive)
GI50 (A549): 19.5 µM (inactive)
GI50 (K562): 16.9 µM (inactive)
GI50 (SF-295): 16.8 µM (inactive)
GI50 (TK-10): 31.2 µM (inactive)
GI50 (KM-20L2): 17.1 µM (inactive)
GI50 (CCRF-CEM): 23.7 µM (inactive)
GI50 (SNB-75): 20.8 µM (inactive)
GI50 (HOP-92): 17.5 µM (inactive)
